In general, Kd refers to the constant that tells how readily two partners part at equilibrium.

Activity calls are given as the source filed them. The rule behind the calls is not given here. Some results are limits rather than exact numbers.

The target of the experiment is Influenza A virus M2 proton channel (A/TW/4845/1999 H1N1). Nature of the experiment: NMR binding screen, influenza A virus M2 proton channel, Kd (AID 1549). The conditions noted are these: M2 protein.
Turning to `O=C1CC(=O)N(Cc2ccco2)C(=S)N1`, the Kd was > 4 mM (inactive). The value for `CC1(O)CC2C(CC1O)C2(C)C` (stereo not given) was > 4 mM (inactive). With `Cc1cc(C(=O)NC(C)c2ccncc2)cs1` (stereo not given) the figure was > 4 mM (inactive).

As for `NC(CC(=O)O)C(=O)Nc1ccc(Cl)cc1` (stereo not given), the Kd was > 4 mM (inactive). The value for `NCc1ccc2c(c1)OCCO2` was > 4 mM (inactive); that for `CN(c1ccccc1C(=O)N1CCOCC1)S(C)(=O)=O` was > 4 mM (inactive); that for `Cc1cc(C)nc(N(C#N)Cc2ccccc2)n1` was > 4 mM (inactive). With `CC(=O)c1sc(NC(=O)C=C(C)C)nc1C` the figure was > 4 mM (inactive). The value for `CS(=O)(=O)c1ccc2nc(N)sc2c1` was > 4 mM (inactive). With `CN1CCCC1C(=O)O` (stereo not given), the Kd was > 4 mM (inactive). The value for `NCc1ccccc1N1CCCCC1` was > 4 mM (inactive). The value for `CC(=O)Oc1ccc2c(c1)c(C(C)=O)c(C)n2C` was > 4 mM (inactive). The value for `Cc1cc(C(=O)N2CCOCC2)c(C)o1` was > 4 mM (inactive). On to `NCc1ccc(-c2ccccn2)s1`, for which the Kd is > 4 mM (inactive). The value for `CCn1c2ccccc2c2nn(C)c(=N)nc21` was > 4 mM (inactive); that for `S=c1[nH]c2cccnc2[nH]1` was > 4 mM (inactive); that for `Nc1ncnc(NCCOCCO)c1[N+](=O)[O-]` was > 4 mM (inactive). As for `O=C(O)c1ccc2snnc2c1`, the Kd was > 4 mM (inactive).

On to `O=c1[nH]c(=S)[nH]c2c1CCC2`, for which the Kd is > 4 mM (inactive).

With `COc1ccc(NC(=O)C(N)=O)cc1Cl`, the Kd was > 4 mM (inactive).

Take `O=C1CNCc2[nH]c3ccccc3c2N1c1ccccc1`: the Kd is > 4 mM (inactive).

For `c1ccc(-c2nnc(CNCc3ccco3)o2)cc1`, the Kd was > 4 mM (inactive). With `Cc1cc(C)nc(NC(N)=NCc2ccco2)n1` the figure was > 4 mM (inactive); with `COC(=O)[C@H]1[C@H]2C[C@H]3c4[nH]c5ccccc5c4CCN3C[C@H]2CC[C@@H]1O`, > 4 mM (inactive). The value for `Cc1n[nH]c(C)c1N` was > 4 mM (inactive); that for `N/C(=N/S(=O)(=O)c1cccs1)c1ccccc1` was > 4 mM (inactive).

As to `O=C(Nc1nnc(C(F)(F)F)s1)c1cccnc1`, the Kd was > 4 mM (inactive). On to `COC(=O)CSc1nc(N)cc(=O)[nH]1`, for which the Kd is > 4 mM (inactive).

Regarding `CCOC(=O)Cc1nc2ccccc2[nH]1`, the Kd is > 4 mM (inactive). The value for `Cc1cc2nc(SCC(=O)O)nc(C)c2cc1C` was > 4 mM (inactive); that for `CN1CCC2(CC1)CC1CC3C=CC1(CN2)O3` (stereo not given) was > 4 mM (inactive); that for `O=C(NCc1ccccc1Cl)c1cnn2cccnc12` was > 4 mM (inactive). `O=C1NC2NC(=O)N(c3ccccc3)C2N1` (stereo not given): the Kd was > 4 mM (inactive). With `O=C1CSC(=Nc2cccc(C(=O)O)c2)N1` the figure was > 4 mM (inactive); with `C/C=C(\C)C(=O)OC1[C@@H]2C=C3C(CC[C@]4(C)C3CC(=O)O[C@H]4c3ccoc3)C(C)(C2=O)[C@@H](C(O)C(=O)OC)C1(C)C` (stereo not given in full), > 4 mM (inactive); with `O=S(=O)(N1CCCCC1)n1nnc2ccccc21`, > 4 mM (inactive). The value for `CNC(=O)CC1Sc2ccccc2NC1=O` (stereo not given) was > 4 mM (inactive). Turning to `O=C(NCCCSc1ncccn1)Nc1ncccn1`, the Kd is > 4 mM (inactive).

Consider `Cc1nc(-c2ccc(NS(C)(=O)=O)cc2)cs1`, for which the Kd was > 4 mM (inactive).

With `C/C=C(\C)c1nnc(NC(=O)C(C)C)s1`, the Kd is > 4 mM (inactive). The value for `CS(=O)(=O)c1ccc(N)cc1` was > 4 mM (inactive); that for `NC1C2CC3CC1CC(O)(C3)C2` (stereo not given) was > 4 mM (inactive); that for `C[C@]12C=CC(=O)C=C1CCC1C2CC[C@]2(C)C(=O)CCC12` (stereo not given in full) was > 4 mM (inactive). The value for `CCS(=O)(=O)N1CCN(c2ccccc2F)CC1` was > 4 mM (inactive); that for `CSc1nnnn1-c1cccc(O)c1` was > 4 mM (inactive); that for `NCc1ccc2c(c1)OCO2` was > 4 mM (inactive). Turning to `COc1ccc2ccc(=O)oc2c1CC=C(C)C`, the Kd was > 4 mM (inactive). The value for `COCC(=O)Nc1c(C(N)=O)oc2ccccc12` was > 4 mM (inactive); that for `CC1CN(C2=NCCN2)CC(C)O1` (stereo not given) was > 4 mM (inactive). Consider `CC(C)CCCC1(C)C=Cc2c(O)c3c(c(CCC(C)C)c2O1)OC12C(CC4CC1C(C)(C)OC2(CCC(C)C(=O)O)C4O)C3=O` (stereo not given), for which the Kd is > 4 mM (inactive). As for `O=C1C(=O)N(CN2CCN(CCO)CC2)c2ccccc21`, the Kd was > 4 mM (inactive). With `CCOC(=O)c1csc(C)n1` the figure was > 4 mM (inactive); with `Cc1cc(=O)n2nc(-c3ccccc3)sc2n1`, > 4 mM (inactive). The value for `CC(=O)Nc1ccc(CN2CCOCC2)cc1` was > 4 mM (inactive); that for `OCC12COC3c4ccccc4C(OC1)N32` (stereo not given) was > 4 mM (inactive). The value for `C=C[C@@](C)(O)CCC1C(=C)CCC2[C@@](C)(CO)CCC[C@]12C` (stereo not given in full) was > 4 mM (inactive).

With `NC(=O)c1c[nH]c2ccccc12`, the Kd is > 4 mM (inactive). The value for `O=C(O)c1ccc(N2CCCCC2)cc1` was > 4 mM (inactive); that for `CC(C)=NNC(=O)C(=O)NC(C)(C)C` was > 4 mM (inactive); that for `O=C1CCCc2c(O)cccc21` was > 4 mM (inactive). The value for `CC(=O)Nc1nnc(-c2ccccc2S(C)(=O)=O)o1` was > 4 mM (inactive); that for `O=C(Nc1ccc(N2CCOCC2)cc1)c1cnsn1` was > 4 mM (inactive); that for `[O-][n+]1c2ccccc2[n+]([O-])c2cc(O)ccc21` was > 4 mM (inactive). The value for `NC(=O)c1ccc(NC(=O)c2ccco2)cc1` was > 4 mM (inactive); that for `COC1CC(O[C@H]2CC[C@]3(C=O)C4CC[C@]5(C)C(C6=CC(=O)OC6)CC[C@]5(O)C4CC[C@]3(O)C2)OC(C)C1O` (stereo not given in full) was > 4 mM (inactive); that for `O=C(Nc1ncccn1)c1cccc(F)c1` was > 4 mM (inactive). For `NC(N)=Nc1nc2ccccc2o1`, the Kd is > 4 mM (inactive). The value for `NCc1nnnn1-c1ccccc1` was > 4 mM (inactive); that for `CC(C)NC(=S)N1CCN(S(C)(=O)=O)CC1` was > 4 mM (inactive).

In the case of `CC(=O)O[C@H]1C[C@@H](OC(C)=O)C(C)(C)C2C[C@@H](OC(C)=O)[C@]3(C)C([C@H](OC(C)=O)C[C@@]4(C)[C@H](c5ccoc5)OC(=O)[C@H]5O[C@]543)[C@]21C` (stereo not given in full), the Kd is > 4 mM (inactive). The value for `c1cncc(Nc2nc(-c3cccnc3)cs2)c1` was > 4 mM (inactive); that for `CCn1nnnc1Oc1ccc(Cl)cc1` was > 4 mM (inactive); that for `O=P1(O)c2ccccc2Nc2ccccc21` was > 4 mM (inactive). The value for `CC(=O)c1cc(C(N)=O)c(=S)[nH]c1C` was > 4 mM (inactive). With `CC(=O)N(c1ccccc1)C1C=CS(=O)(=O)C1` (stereo not given) the figure was > 4 mM (inactive); with `Nc1cccc(-n2cccc2)c1`, > 4 mM (inactive). Regarding `Cc1nn(CC(=O)N2CCCCC2)c(=O)c2ccccc12`, the Kd was > 4 mM (inactive). As to `CCN1CCC(NC2CCCCNC2=O)CC1` (stereo not given), the Kd is > 4 mM (inactive). With `CCOC(=O)c1c(C)nc2ccccn12` the figure was > 4 mM (inactive); with `C[C@]12CCC(=O)C=C1CCC1C2C(=O)C[C@@]2(C)C1CC[C@]2(O)C(=O)CO` (stereo not given in full), > 4 mM (inactive); with `OC12CC3CC(C1)C1(NCCS1)C(C3)C2` (stereo not given), > 4 mM (inactive).

In the case of `Cc1cc(OC(=O)c2c(C)cc(O)cc2O)cc(O)c1C(=O)O`, the Kd is > 4 mM (inactive).

As to `Cc1ccc(SCc2nc(-c3cccnc3)no2)cc1`, the Kd is > 4 mM (inactive). The value for `CN1C(=O)C(Cc2c[nH]c3ccccc23)C(=O)N(C)C1=O` was > 4 mM (inactive); that for `c1cc(C(N2CCOCC2)N2CCOCC2)ccn1` was > 4 mM (inactive).

Consider `O=C1CCNc2cc3ccccc3cc21`, for which the Kd is > 4 mM (inactive).

With `Cc1cc(/C=N/O)nc(=O)[nH]1`, the Kd was > 4 mM (inactive).

Turning to `OCC1CCCC1O` (stereo not given), the Kd was > 4 mM (inactive). The value for `COC(=O)Nc1nnc(-c2ccncc2)s1` was > 4 mM (inactive). With `CNc1nc(C)nc(-n2nc(C)cc2C)n1` the figure was > 4 mM (inactive); with `O=C(Cc1cccs1)Nc1ccccn1`, > 4 mM (inactive). The value for `CCNC(=S)N1CCCC(C(N)=O)C1` (stereo not given) was > 4 mM (inactive); that for `CN(C)c1oc(-c2ccccc2Cl)nc1C#N` was > 4 mM (inactive).

For `CCOc1ccc(-c2c(=O)n(O)c3ccccc3[n+]2[O-])cc1`, the Kd is > 4 mM (inactive). As to `N#Cc1cc2ccccc2nc1N`, the Kd was > 4 mM (inactive). Consider `NC(=O)c1ccsc1NC(=O)c1ccco1`, for which the Kd was > 4 mM (inactive). With `CSc1ccn(CCC(=O)O)c(=O)n1` the figure was > 4 mM (inactive). For the compound `O=C(O)c1cccnc1`, the Kd is > 4 mM (inactive). The value for `CSc1ccccc1C(=O)N1CCOCC1` was > 4 mM (inactive); that for `NC(=O)C1CCN(CN2C(=O)c3ccccc3C2=O)CC1` was > 4 mM (inactive); that for `Cc1nc2ccc(NC(=O)N3CCOCC3)cc2s1` was > 4 mM (inactive). With `N#Cc1cnc(N2CCCCC2)nc1N`, the Kd was > 4 mM (inactive). As for `COc1c(O)cc2c(c1O)[C@H]1O[C@H](CO)[C@@H](O)[C@H](O)[C@@H]1OC2=O`, the Kd was > 4 mM (inactive).

Turning to `Cn1c(=O)n(C)c2cc(C(N)=O)ccc21`, the Kd was > 4 mM (inactive). With `CN1CC(=O)Nc2ccc([N+](=O)[O-])cc2C1=O` the figure was > 4 mM (inactive).

(Values after PubChem BioAssay AID1549 (Sanford-Burnham Center for Chemical Genomics, 2009).)
